Source: ChEMBL document CHEMBL1201862, “PubChem BioAssay data set” (2004)
The source made the active and inactive calls.

Columns and labels:
X-box-binding protein 1 = X-box-binding protein 1 (Homo sapiens, UniProt P17861); format: functional, Cricetulus griseus;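 further: confirmatory dose-response counter-screen serving a CHOP assay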
Hexokinase HKDC1 = biological target: T1, Hexokinase HKDC1 (Homo sapiens, UniProt Q2TB90); assay: HKDC1 hexokinase inhibitors, dose response, biochemical, W721R variant (AID 504729); format: functional
T1 sequence (Q2TB90 whole entry): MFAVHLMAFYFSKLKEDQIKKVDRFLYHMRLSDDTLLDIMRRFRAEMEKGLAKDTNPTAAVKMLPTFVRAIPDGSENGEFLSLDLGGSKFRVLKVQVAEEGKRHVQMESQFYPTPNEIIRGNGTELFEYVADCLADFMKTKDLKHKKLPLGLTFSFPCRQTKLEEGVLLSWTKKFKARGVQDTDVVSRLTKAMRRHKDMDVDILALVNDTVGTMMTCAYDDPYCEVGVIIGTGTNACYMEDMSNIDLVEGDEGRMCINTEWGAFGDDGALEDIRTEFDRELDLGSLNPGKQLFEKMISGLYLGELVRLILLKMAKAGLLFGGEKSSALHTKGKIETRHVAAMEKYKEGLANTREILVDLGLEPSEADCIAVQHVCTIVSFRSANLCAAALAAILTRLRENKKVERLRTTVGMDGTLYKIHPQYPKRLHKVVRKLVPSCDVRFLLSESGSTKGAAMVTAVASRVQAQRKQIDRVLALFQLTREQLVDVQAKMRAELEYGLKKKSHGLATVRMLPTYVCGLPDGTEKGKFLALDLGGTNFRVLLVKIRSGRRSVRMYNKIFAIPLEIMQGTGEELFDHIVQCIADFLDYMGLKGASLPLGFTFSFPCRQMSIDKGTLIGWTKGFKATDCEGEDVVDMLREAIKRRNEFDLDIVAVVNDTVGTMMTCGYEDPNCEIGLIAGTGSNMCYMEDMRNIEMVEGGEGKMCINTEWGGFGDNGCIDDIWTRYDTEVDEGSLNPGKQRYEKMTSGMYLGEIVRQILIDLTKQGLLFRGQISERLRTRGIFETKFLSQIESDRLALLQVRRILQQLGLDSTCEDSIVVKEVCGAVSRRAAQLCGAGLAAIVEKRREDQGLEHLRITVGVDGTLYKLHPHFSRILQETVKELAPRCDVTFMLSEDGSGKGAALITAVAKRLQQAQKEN

[1] = Luminescence Cell-Based Dose Response HTS to Identify Activators of 5'UTR Stem-Loop Driven Prion Protein mRNA Translation in H4-C Neuroglioblastoma Cells. [Related pubchem assays: 1829 (Project Summary), 1814 (Primary HTS)]; format: functional
H4 = assay: Luminescence Cell-Based Dose Response HTS to Identify Activators of 5'UTR Stem-Loop Driven Prion Protein mRNA Translation in H4 Neuroglioblastoma Cells. [Related pubchem assays: 1829 (Project Summary), 1814 (Primary HTS)]; format: functional; conditions: Homo sapiens
[2] = Luminescence Cell-Based Dose Retest to Confirm Activators of 5'UTR Stem-Loop Driven Alpha-Synuclein mRNA Translation in H4 Neuroglioblastoma Cells. [Related pubchem assays (depositor defined):AID1813, AID1829]; format: functional
[3] = Luminescence Cell-Based Dose Response HTS to Identify Activators of Luciferase Translation or Activity in H4-C Neuroglioblastoma Cells. [Related pubchem assays: 1829 (Project Summary), 1814 (Primary HTS)]; format: functional
[4] = Luminescence Cell-Based Dose Response HTS to Identify Activators of Luciferase Translation or Activity in H4 […] Cells. [Related pubchem assays: 1829 (Project Summary), 1814 (Primary HTS)]; format: functional
[5] = Luminescence Cell-Based Dose Confirmation HTS to Identify Activators of 5'UTR Stem-Loop Driven Alpha-Synuclein mRNA Translation in H4 Neuroglioblastoma Cells. [Related pubchem assays: 1829 (Project Summary), 1814 (Primary HTS)]; format: functional
[6] = off-target signal loss in HeLa-CEM21 co-culture – HeLa F-luc CTL cells, cherry-picked, counter-screen for HIV-1 Env fusion inhibitor project, dose response (AID 652040); format: functional, cell-based;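 further: potency for signal decrease marking cytotoxic or nonspecific inhibition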
[7] = inhibitors of HIV Env-driven cell fusion, dose response, cherry-pick (AID 652057); format: functional, cell-based
[8] = Luminescence-based counterscreen assay for KLF5 inhibitors: dose response cell-based high throughput screening assay to identify cytotoxic compounds using the IEC-6 intestinal epithelial cell line. [Related pubchem assays: 1700 (Primary screen.), 1834 (Confirmation screen.), 1858 (Summary AID.), 1905 (Counterscreen.)]; format: functional
[9] = biological target: Luciferin 4-monooxygenase (Photinus pyralis, UniProt P08659); assay: firefly luciferase enzyme inhibitors, dose response, biochemical, luminescence (AID 1891)
Sequence of Luciferin 4-monooxygenase (P08659 whole entry): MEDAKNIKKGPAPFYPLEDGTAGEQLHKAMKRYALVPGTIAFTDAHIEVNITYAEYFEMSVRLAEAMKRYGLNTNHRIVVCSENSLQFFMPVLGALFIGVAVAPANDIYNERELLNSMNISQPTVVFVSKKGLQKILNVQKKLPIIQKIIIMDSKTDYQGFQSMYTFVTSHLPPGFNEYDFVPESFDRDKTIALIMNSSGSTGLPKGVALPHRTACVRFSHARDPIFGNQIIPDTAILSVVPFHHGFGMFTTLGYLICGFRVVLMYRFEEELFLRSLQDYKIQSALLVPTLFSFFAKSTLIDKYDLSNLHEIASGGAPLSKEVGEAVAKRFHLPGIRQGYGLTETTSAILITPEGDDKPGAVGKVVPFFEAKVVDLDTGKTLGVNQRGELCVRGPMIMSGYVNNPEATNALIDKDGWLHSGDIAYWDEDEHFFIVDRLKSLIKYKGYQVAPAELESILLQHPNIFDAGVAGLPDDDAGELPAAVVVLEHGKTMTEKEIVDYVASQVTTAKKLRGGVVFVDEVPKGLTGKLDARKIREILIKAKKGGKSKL

[10] = cytotoxicity in HEK-293T cells, dose response, cytotoxicity control for TCR NF-kB inhibitor project, luminescence, T-cell screen hits (AID 489026); format: functional, cell-based;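 further: cells exposed to compound about 14 hours before the viability readout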
[11] = ZM109 Env clade C HIV-1 fusion inhibitors, dose response, HeLa effector, CEM target cells, luciferase, cherry-pick (AID 652058); format: functional, cell-based
[12] = biological target: Cyclin-dependent kinase 5/CDK5 activator 1 (Homo sapiens, UniProt Q00535); assay: CDK5/p35 kinase inhibitors, dose response, biochemical, cherry-picked samples, set 2 (AID 504545)
[13] = inhibitors of clade B AD8 Env fusion, dose response, cell-based, cherry-pick (AID 652062); format: functional;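 further: luciferase signal from cell-cell fusion driven by HIV-1 clade B AD8 Env; potency is for inhibitors of fusion seen as a drop in luminescence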
[14] = CEM21 lymphoblast cell cytotoxicity, dose response, cytotoxicity control for viral fusion inhibitor project, CellTiter-Glo luminescence, cherry-picked (AID 652042); format: functional, cell-based;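 further: potency for signal decrease meaning cytotoxicity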
[15] = inhibition of ADP-Glo detection reagents, dose response, artefact control for CDK5 inhibitor project, biochemical, luminescence, cherry-picked samples, set 2 (AID 504546); format: functional
[16] = Luminescence Cell-Based Dose Confirmation HTS to Identify Inhibitors of Platelet Dense Granule Release. [Related pubchem assays: 1663 (Primary HTS), 1678 (Summary of Project)]; format: functional
[17] = biological target: T2, Voltage-dependent T-type calcium channel subunit alpha-1H (Homo sapiens, UniProt O95180); format: functional
T2 sequence (O95180 whole entry): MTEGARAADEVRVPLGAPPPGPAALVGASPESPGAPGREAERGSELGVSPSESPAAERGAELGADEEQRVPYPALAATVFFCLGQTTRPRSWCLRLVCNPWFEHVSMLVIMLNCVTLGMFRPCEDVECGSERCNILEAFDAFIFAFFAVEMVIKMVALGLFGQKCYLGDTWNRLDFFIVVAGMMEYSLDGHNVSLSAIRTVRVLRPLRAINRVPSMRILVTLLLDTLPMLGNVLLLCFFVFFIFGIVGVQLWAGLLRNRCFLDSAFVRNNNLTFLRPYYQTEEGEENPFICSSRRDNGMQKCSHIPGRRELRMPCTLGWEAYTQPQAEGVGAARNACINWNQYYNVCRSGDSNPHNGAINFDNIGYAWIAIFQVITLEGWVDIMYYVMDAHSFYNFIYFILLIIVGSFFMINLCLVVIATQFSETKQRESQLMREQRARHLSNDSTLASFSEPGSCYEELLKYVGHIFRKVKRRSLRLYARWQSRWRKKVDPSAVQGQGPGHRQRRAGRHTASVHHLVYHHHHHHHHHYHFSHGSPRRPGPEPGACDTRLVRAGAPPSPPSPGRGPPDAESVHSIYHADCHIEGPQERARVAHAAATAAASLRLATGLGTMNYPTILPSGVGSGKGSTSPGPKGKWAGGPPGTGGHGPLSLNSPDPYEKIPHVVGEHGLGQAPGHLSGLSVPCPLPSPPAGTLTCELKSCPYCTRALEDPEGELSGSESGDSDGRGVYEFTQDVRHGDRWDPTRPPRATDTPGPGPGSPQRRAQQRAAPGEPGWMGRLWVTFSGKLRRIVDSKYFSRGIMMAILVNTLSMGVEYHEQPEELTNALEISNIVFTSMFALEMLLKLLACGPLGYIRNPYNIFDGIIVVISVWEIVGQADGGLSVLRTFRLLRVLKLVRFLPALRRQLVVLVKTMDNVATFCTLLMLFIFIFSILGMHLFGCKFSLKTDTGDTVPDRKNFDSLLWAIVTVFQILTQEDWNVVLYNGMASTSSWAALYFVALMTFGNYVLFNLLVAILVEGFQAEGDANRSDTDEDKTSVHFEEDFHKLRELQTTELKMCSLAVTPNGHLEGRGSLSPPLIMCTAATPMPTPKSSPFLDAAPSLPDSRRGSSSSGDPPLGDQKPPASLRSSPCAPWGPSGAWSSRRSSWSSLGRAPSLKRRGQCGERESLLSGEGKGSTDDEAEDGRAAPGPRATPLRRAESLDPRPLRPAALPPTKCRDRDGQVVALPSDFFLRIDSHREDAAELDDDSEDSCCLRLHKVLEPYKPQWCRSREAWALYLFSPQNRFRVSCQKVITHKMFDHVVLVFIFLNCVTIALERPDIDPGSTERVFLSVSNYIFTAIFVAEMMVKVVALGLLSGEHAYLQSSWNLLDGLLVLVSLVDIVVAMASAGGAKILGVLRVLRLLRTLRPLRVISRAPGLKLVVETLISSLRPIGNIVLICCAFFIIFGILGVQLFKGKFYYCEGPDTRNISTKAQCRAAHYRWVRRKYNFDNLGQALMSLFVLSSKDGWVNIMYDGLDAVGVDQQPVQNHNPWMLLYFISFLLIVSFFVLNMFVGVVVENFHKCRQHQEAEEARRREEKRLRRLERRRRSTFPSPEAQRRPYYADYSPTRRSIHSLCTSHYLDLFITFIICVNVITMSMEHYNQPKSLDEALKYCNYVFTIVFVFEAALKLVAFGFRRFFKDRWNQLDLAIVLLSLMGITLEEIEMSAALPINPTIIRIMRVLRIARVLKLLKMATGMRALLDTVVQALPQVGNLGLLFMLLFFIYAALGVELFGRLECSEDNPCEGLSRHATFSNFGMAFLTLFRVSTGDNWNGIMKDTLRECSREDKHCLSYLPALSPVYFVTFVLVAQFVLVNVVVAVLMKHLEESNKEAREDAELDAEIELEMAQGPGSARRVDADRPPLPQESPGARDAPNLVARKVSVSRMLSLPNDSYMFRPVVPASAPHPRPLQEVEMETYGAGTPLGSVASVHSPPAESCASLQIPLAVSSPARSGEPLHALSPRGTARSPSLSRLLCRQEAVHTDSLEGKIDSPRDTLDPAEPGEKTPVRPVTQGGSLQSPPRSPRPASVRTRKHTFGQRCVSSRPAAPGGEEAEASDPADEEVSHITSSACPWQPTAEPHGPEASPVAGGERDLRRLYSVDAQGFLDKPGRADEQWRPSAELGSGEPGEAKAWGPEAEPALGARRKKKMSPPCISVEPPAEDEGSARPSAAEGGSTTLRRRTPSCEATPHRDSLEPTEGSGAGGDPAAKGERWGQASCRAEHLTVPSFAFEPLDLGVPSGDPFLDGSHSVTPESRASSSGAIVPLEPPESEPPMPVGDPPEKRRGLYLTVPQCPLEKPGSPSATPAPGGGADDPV

[18] = biological target: T2, Voltage-dependent T-type calcium channel subunit alpha-1H; assay: Inhibitors of T-Type Calcium Channels. [Related pubchem assays (depositor defined):AID449739, AID463087, AID489005, AID493041, AID504579, AID504584, AID504619, AID504628]; format: functional
[19] = biological target: NACHT, LRR and PYD domains-containing protein 3 (Homo sapiens, UniProt Q96P20); assay: NALP3 inhibitors in yeast, dose response, luminescent (AID 488799); format: functional
Sequence of NACHT, LRR and PYD domains-containing protein 3 (Q96P20 whole entry, the tested form may be a part): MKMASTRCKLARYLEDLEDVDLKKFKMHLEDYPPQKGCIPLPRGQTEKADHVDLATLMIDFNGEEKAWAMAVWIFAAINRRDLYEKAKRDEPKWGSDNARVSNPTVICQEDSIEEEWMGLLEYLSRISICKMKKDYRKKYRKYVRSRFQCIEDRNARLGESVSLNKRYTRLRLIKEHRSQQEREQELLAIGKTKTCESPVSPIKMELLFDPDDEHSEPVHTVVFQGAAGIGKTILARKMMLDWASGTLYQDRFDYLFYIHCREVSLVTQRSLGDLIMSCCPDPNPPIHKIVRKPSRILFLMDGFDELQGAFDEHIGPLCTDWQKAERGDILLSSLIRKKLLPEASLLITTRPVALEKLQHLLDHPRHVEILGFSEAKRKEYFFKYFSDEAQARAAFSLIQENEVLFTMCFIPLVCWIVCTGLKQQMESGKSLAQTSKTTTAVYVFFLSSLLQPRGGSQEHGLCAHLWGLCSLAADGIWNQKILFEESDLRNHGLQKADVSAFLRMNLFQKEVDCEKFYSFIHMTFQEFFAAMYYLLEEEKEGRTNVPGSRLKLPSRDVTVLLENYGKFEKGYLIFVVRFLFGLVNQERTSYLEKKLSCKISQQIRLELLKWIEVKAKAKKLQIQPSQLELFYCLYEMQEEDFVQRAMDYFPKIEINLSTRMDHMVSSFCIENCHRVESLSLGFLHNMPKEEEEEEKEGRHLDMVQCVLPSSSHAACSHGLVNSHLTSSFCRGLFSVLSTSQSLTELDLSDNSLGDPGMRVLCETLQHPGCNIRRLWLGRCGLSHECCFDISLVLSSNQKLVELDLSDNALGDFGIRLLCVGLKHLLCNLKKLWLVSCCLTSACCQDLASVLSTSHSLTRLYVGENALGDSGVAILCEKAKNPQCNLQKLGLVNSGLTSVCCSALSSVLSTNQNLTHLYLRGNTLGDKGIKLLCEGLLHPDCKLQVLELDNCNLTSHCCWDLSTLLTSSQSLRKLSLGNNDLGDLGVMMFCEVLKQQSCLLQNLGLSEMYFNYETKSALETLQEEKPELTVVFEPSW

CHO-K1 = assay: (§1) Counterscreen for antagonists of the orexin 1 receptor (OX1R; HCRTR1): Homogeneous time resolved fluorescence (HTRF)-based cell-based dose response assay to identify antagonists of the parental CHO-K1 cell line. [Related pubchem assays (depositor defined):AID434989, AID435008, AID463079, AID485270, AID492963, AID492964, AID492965, AID493232, AID504699, AID504701]; format: functional; conditions: Cricetulus griseus
[20] = biological target: T3, Scavenger receptor class B member 1 (Mus musculus, UniProt Q61009); assay: inhibitors of SR-BI mediated HDL lipid uptake, dose response, ldlA[mSR-BI] cells, fluorescence, cherry pick (AID 493194); format: functional, cell-based;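 further: cellular uptake of fluorescent DiI-labeled HDL measured as cell fluorescence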
T3 sequence (Q61009 whole entry): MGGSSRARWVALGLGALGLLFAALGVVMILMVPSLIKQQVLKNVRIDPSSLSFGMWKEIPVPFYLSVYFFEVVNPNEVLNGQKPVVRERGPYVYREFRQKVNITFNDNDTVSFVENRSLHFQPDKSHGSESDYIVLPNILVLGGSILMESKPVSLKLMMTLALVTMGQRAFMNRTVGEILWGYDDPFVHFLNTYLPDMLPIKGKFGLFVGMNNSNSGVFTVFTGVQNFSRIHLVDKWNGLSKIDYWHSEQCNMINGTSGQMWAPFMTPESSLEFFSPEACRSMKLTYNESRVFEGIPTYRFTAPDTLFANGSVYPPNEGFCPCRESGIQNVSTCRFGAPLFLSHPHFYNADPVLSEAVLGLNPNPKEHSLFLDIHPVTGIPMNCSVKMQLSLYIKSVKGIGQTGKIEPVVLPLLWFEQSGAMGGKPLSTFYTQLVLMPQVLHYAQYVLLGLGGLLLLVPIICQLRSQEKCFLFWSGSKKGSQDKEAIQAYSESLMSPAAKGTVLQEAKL

Cytochrome P450 1A2 = biological target: T4, Cytochrome P450 1A2 (Homo sapiens, UniProt P05177);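 further: PubChem cytochrome P450 panel assay, CYP1A2 panel member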
T4 sequence (P05177 whole entry): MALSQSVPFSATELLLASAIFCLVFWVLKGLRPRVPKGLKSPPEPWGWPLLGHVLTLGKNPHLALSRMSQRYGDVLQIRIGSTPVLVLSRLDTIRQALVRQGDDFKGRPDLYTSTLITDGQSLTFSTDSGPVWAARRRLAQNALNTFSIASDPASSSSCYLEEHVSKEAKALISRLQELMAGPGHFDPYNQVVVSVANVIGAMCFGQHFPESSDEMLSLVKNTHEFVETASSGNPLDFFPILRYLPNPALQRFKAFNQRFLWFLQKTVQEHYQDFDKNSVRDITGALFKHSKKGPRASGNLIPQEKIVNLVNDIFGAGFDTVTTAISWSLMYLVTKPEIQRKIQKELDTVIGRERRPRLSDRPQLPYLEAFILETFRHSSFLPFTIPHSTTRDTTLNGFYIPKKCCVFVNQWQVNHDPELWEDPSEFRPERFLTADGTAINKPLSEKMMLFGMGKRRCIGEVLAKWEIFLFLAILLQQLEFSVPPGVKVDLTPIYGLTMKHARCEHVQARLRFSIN

[21] = biological target: T5, Orexin/Hypocretin receptor type 1 (Homo sapiens, UniProt O43613); assay: Homogeneous Time Resolved Fluorescence (HTRF)-based cell-based high throughput dose response assay for antagonists of the orexin 1 receptor (OX1R; HCRTR1). [Related pubchem assays (depositor defined):AID434989, AID435008, AID463079, AID485270, AID492963, AID492964, AID492965, AID493232, AID504717, AID504718]; format: functional
T5 sequence (O43613 whole entry): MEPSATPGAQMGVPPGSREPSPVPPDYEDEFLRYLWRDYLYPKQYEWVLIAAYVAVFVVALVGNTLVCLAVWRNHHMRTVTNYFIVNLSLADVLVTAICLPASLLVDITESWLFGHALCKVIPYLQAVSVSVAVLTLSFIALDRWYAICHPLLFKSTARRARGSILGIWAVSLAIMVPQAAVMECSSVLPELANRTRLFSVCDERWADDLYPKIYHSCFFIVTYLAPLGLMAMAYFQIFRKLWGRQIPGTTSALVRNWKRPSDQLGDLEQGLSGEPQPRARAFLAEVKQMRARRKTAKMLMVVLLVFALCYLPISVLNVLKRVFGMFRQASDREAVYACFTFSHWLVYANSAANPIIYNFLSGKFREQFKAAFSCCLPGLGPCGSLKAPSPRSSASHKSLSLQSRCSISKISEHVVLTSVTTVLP

[22] = as §1, with “Fluorescence-based” for “Homogeneous time resolved fluorescence (HTRF)-based”, “cell-based high throughput” for “cell-based”, “CHO” for “CHO-K1”; format: functional
[23] = biological target: T5, Orexin/Hypocretin receptor type 1; assay: Fluorescence-based cell-based high throughput dose response assay for antagonists of the orexin 1 receptor (OX1R; HCRTR1). [Related pubchem assays (depositor defined):AID434989, AID435008, AID463079, AID485270, AID492963, AID492964, AID492965, AID493232, AID504717, AID504718]; format: functional
[24] = biological target: T6, Neuropeptides B/W receptor type 1 (Homo sapiens, UniProt P48145); assay: GPR7 antagonist potency, late-stage follow-up, cell-based, fluorescence, dose response (AID 463251); format: functional
T6 sequence (P48145 whole entry): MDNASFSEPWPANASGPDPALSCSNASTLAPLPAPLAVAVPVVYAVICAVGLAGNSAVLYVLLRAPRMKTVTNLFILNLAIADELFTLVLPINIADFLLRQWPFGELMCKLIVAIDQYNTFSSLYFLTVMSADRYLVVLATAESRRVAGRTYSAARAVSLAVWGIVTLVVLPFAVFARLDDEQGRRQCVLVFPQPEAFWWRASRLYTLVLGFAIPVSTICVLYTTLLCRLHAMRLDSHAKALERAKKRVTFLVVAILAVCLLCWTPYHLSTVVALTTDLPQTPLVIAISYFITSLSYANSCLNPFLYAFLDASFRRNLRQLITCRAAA

[25] = biological target: Melanin-concentrating hormone receptor 1 (Homo sapiens, UniProt Q99705); assay: Late-stage fluorescence-based counterscreen for antagonists of the G-protein coupled receptor 7 (GPR7): cell-based dose response assay to identify antagonists of the melanin-concentrating hormone receptor 1 (MCHR1). [Related pubchem assays (depositor defined):AID1861, AID1880, AID1952, AID2148, AID2251, AID2257, AID485339]; format: functional;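 further: stimulated with 30 nM MCH peptide agonist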
Sequence of Melanin-concentrating hormone receptor 1 (Q99705 whole entry): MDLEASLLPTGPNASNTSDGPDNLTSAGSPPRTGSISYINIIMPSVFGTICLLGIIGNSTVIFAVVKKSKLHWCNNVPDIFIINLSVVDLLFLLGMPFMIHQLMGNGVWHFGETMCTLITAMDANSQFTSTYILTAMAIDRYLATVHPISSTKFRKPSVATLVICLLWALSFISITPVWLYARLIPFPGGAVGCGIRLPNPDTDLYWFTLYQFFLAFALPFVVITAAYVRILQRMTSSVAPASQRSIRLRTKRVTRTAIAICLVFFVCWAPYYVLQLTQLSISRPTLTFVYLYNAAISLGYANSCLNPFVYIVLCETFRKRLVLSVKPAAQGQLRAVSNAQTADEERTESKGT

Sequence of X-box-binding protein 1 (P17861 whole entry): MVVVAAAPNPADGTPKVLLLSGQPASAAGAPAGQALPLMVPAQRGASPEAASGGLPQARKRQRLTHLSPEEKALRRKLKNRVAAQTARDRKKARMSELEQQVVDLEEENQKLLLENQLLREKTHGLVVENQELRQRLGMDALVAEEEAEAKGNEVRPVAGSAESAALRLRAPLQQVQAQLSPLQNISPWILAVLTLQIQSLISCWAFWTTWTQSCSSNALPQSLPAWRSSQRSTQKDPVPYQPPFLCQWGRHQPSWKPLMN

CC(C)c1ccc(NC(=O)CSc2[nH]c(-c3ccccc3F)nc3ncnc2-3)cc1
Absolute IC50 (XBP1) (X-box-binding protein 1): 10 µM

C=CCn1c(SCC(=O)Nc2sc3c(c2C#N)CCC(C)C3)nc2cc(C(=O)O)ccc2c1=O (stereo not given)
IC50 (Hexokinase HKDC1): > 80 µM (inactive)

Cc1ccc(NC(=O)c2ccc3snnc3c2)cc1
EC50 [1]: 0.185 µM (active)
EC50 (H4): > 120 µM (not active)
EC50 [2]: 0.885 µM (active)
EC50 [3]: 1.88 µM (active)
EC50 [4]: 6.57 µM (active)
EC50 [5]: 2.76 µM (active)

Cc1ccc(C(=O)O/N=C(\N)c2ccccn2)c(Cl)c1
AC50 [6]: 9.61 µM (active)
AC50 [7]: 3.44 µM (active)
IC50 [8]: 20.1 µM (not active)
EC50 [9]: 0.782 µM (active)
IC50 [10]: > 80 µM (inactive)
AC50 [11]: 21.8 µM (active)
AC50 [12]: 21.4 µM (active)
AC50 [13]: 6.87 µM (active)
AC50 [14]: 17.3 µM (active)
AC50 [15]: 92.9 µM (active)
EC50 [16]: 1.2 µM (active)

O=S(=O)(NCc1ccccc1)c1ccc(S(=O)(=O)N(Cc2ccccn2)C2CCCC2)cc1
EC50 [17]: 3.02 µM (active)
EC50 [18]: 2.35 µM (active)

CC(C)NC(=O)c1c(O)c2ccccc2[nH]c1=O
IC50 [19]: 13.1 µM (active)

O=C(Nc1cccc(NC(=O)N2CCN(c3ccccc3)CC2)c1)N1CCN(c2ccccc2)CC1
IC50 (CHO-K1): > 66.2 µM (inactive)
AC50 [20]: 48.9 µM (active)
AC50 (Cytochrome P450 1A2): 15.8 µM (inconclusive)
IC50 [21]: 10.4 µM (inactive)
IC50 [22]: 25.1 µM (inactive)
IC50 [23]: 11 µM (inactive)

CC(C)c1ccc(-n2ncc(Cl)c(Oc3ccc(Cl)cc3)c2=O)cc1
IC50 [24]: 1.4 µM (active)
IC50 [25]: 5.7 µM (active)
